Measurements as given in article PMC10080691, “Enzyme-Responsive Double-Locked Photodynamic Molecular Beacon for Targeted Photodynamic Anticancer Therapy” (Journal of the American Chemical Society, 2023).

System: HeLa cells
Test: Intracellular ROS generation (H2DCFDA)
Format: cell-based, human
Conditions: no inhibitor pretreatment, 2 μM 1 h + 6 h, light λ > 610 nm, 23 mW cm-2, 14 J cm-2
Method: The enzyme-responsive intracellular ROS generation of 1 was then examined in A549 and HeLa cells using 2′,7′-dichlorodihydrofluorescein diacetate (H2DCFDA) as the ROS fluorescent probe. Once H2DCFDA is internalized, it will be deacetylated by the intracellular esterase, followed by oxidation by the intracellular ROS, leading to the formation of the highly fluorescent 2′,7′-dichlorofluorescein (DCF).[79] The cells were first pretreated with SB-3CT (10 μM) and/or CA-074 Me (25 μM) or simply the neat medium for 2 h, followed by incubation with 1 (2 μM) for a further 1 h. As a negative control, the cells were simply incubated with 14 (2 μM) for 1 h. After being rinsed with PBS, the cells were incubated in the medium for a further 6 h. Finally, the cells were incubated with H2DCFDA (10 μM) for 30 min, followed by dark or light (λ > 610 nm, 23 mW cm^–2, 14 J cm^–2) treatment. […] It can be seen that for the MMP-2-positive A549 cells, the fluorescence due to DCF was in the following order: 1 without pretreatment of the cells with the two inhibitors > 1 with pretreatment of the cells with either one of the two inhibitors > 1 with pretreatment of the cells with both inhibitors ≈ 14. […] This trend, which reflects the extent of recovery of ROS generation, was in accord with that of the fluorescence recovery inside the cells (Figure 5c,d). For the MMP-2-negative HeLa cells, the intracellular fluorescence remained very weak even for 1 without pretreatment of the cells with the two inhibitors because of the intrinsically low MMP levels in the cells. […]
or ER-Tracker Green (Thermo Fisher Scientific Inc., E34251) (1 μM for 15 min) in a serum-free medium at 37 °C. […] All the trackers were excited at 488 nm and their fluorescence was monitored at 500−570 nm, while the DSBDP moiety was excited at 638 nm and its fluorescence was monitored at 650−750nm. The images were digitized and analyzed using a Leica Application Suite X software. […]
at 500−550 nm. The images were digitized and analyzed using a Leica Application Suite X […]

## CCN(CC)c1ccc2nc3ccc(/N=N/c4ccc(N(C)CCCNC(=O)OC[C@@H]5[C@@H]6CCc7nnn(CC(=O)NCCCC[C@@H]8NC(=O)CNC(=O)[C@H](CCCCN)NC(=O)[C@H](CCCNC(=N)N)NC(=O)[C@H](C(C)C)NC(=O)CNC(=O)[C@H](CC(C)C)NC(=O)[C@@H]9CCCN9C(=O)[C@H](CCCCN)NC(=O)[C@@H](N)CSCc9cc(COc%10ccc(C%11=C%12C(C)=C(I)C(/C=C/c%13ccc(OCCOCCOCCOC)cc%13)=[N+]%12[B-](F)(F)n%12c(/C=C/c%13ccc(OCCOCCOCCOC)cc%13)c(I)c(C)c%12%11)cc%10)cc(c9)CSC[C@@H](C(N)=O)NC(=O)[C@H](CCCCN)NC(=O)[C@H](CCCCN)NC(=O)CNC(=O)[C@H](CC(C)C)NC(=O)[C@H](Cc9ccccc9)NC(=O)CNC(=O)[C@H](CCCCN)NC(=O)CNC8=O)c7CC[C@@H]65)cc4)cc3[n+](-c3ccccc3)c2c1 [compound 1]
  intracellular ROS generation (DCF fluorescence): very weak
